The values that follow come from PubChem BioAssay AID248 (DTP/NCI, 2004).

For this test, the system named is L1210 leukemia ip in BDF1 mice, survival T/C. In words: NCI In Vivo Anticancer Drug Screen. Data for tumor model L1210 Leukemia (intraperitoneal) in B6D2F1 (BDF1) mice. The following applies: endpoint: mean survival time, higher = longer survival. A digest of the protocol: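 Mice bearing the transplanted tumor received compound or vehicle. Survival of the treated group was divided by that of the vehicle-treated control group to give the ratio.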

Setting [1] is: dose: 100.0 mg/kg/injection, schedule: Q01DX001 (ip), vehicle: saline.
[2] abbreviates: dose: 200.0 mg/kg/injection, schedule: Q01DX001 (ip), vehicle: saline.
Setting [3] is: dose: 400.0 mg/kg/injection, schedule: Q01DX001 (ip), vehicle: saline.
Setting [4] is: dose: 200.0 mg/kg/injection, schedule: Q04DX003 (ip), vehicle: Klucel (hydroxypropylcellulose) (HPC).
[5] abbreviates: dose: 100.0 mg/kg/injection, schedule: Q04DX003 (ip), vehicle: saline with Tween-80.
Where [6] appears, read: dose: 200.0 mg/kg/injection, schedule: Q04DX003 (ip), vehicle: saline with Tween-80.
Where [7] appears, read: dose: 400.0 mg/kg/injection, schedule: Q04DX003 (ip), vehicle: saline with Tween-80.
[8] abbreviates: dose: 100.0 mg/kg/injection, schedule: Q01DX009 (ip), vehicle: Klucel (hydroxypropylcellulose) (HPC).
Where [9] appears, read: dose: 200.0 mg/kg/injection, schedule: Q01DX009 (ip), vehicle: Klucel (hydroxypropylcellulose) (HPC).
Where [10] appears, read: dose: 100.0 mg/kg/injection, schedule: Q04DX003 (ip), vehicle: Klucel (hydroxypropylcellulose) (HPC).
[11] abbreviates: dose: 400.0 mg/kg/injection, schedule: Q04DX003 (ip), vehicle: Klucel (hydroxypropylcellulose) (HPC).
Where [12] appears, read: dose: 100.0 mg/kg/injection, schedule: Q01DX009 (ip), vehicle: saline with Tween-80.
Setting [13] is: dose: 200.0 mg/kg/injection, schedule: Q01DX009 (ip), vehicle: saline with Tween-80.
[14] abbreviates: dose: 75.0 mg/kg/injection, schedule: Q01DX001 (ip), vehicle: saline.

Each structure is given as a SMILES string. Several values for one entry are separate records, joined by “and”; a condition that tells them apart may be missing. Equal entries are not always repeated. Toxic doses and inconclusive results are not listed.

Turning to `S=P1(c2ccccc2)Nc2cc(Cl)ccc2S1` (configuration not stated), the T/C (dose: 50.0 mg/kg/injection, schedule: Q01DX001 (ip), vehicle: saline) is 105 % of control and the T/C under setting [1] was 106 % of control.

For `OC1CCC2C=CCC1S2` (configuration not stated), the T/C (dose: 100.0 mg/kg/injection, schedule: Q01DX009 (ip), vehicle: gum acacia) was 101 % of control; the T/C (dose: 200.0 mg/kg/injection, schedule: Q01DX009 (ip), vehicle: gum acacia) is 100 % of control; the T/C (dose: 400.0 mg/kg/injection, schedule: Q01DX009 (ip), vehicle: gum acacia) is 97 % of control.

With `O=C(NC1CCCC2CCCCC21)OCCC1CCCCC1` (configuration not stated), the T/C runs as follows: under setting [1], 95 % of control; under setting [2], 103 % of control; under setting [3], 95 % of control.

Take `CC(NC(=O)OCc1ccccc1)C(=O)Oc1cc(Cl)c(Cl)cc1Cl` (configuration not stated): the T/C by setting is: under setting [1], 92 % of control; (dose: 100.0 mg/kg/injection, schedule: Q01DX009 (ip), vehicle: saline) 95 % of control; (dose: 100.0 mg/kg/injection, schedule: Q04DX003 (ip), vehicle: saline) 91 % of control; under setting [2], 97 % of control; (dose: 200.0 mg/kg/injection, schedule: Q01DX009 (ip), vehicle: saline) 93 % of control; under setting [4], 87 % of control. Moreover, the T/C reads like this: (dose: 200.0 mg/kg/injection, schedule: Q04DX003 (ip), vehicle: saline) 91 % of control; under setting [3], 92 % of control; (dose: 400.0 mg/kg/injection, schedule: Q01DX009 (ip), vehicle: saline) 92 % of control.

Regarding `CC1CCNC(C(C)C)CC1` (configuration not stated), the T/C is 96 % of control (dose: 100.0 mg/kg/injection, schedule: Q04DX002 (ip), vehicle: saline) and 115 % of control (dose: 200.0 mg/kg/injection, schedule: Q04DX002 (ip), vehicle: saline).

With `O=C(O)C1C2CCC1C2` (configuration not stated), the T/C is, setting by setting: under setting [5], 98 % of control; under setting [6], 101 % of control; under setting [7], 95 % of control.

With `O=C1OC(=O)C2C3OC(C(Cl)C3Cl)C12` (configuration not stated), the T/C was 106 % of control under setting [8] and 106 % of control under setting [9].

Take `C#CCN(CC#C)CC#C`: the T/C is, setting by setting: (dose: 25.0 mg/kg/injection, schedule: Q04DX003 (ip), vehicle: saline) 103 % of control; (dose: 50.0 mg/kg/injection, schedule: Q04DX003 (ip), vehicle: saline) 94 % of control.

`CCOC(=O)/C=C(\C)N(C(=O)N(CCCl)N=O)c1ccccc1`: the T/C (dose: 0.12 mg/kg/injection, schedule: Q01DX009 (ip), vehicle: Klucel (hydroxypropylcellulose) (HPC)) was 118 % of control; the T/C (dose: 0.5 mg/kg/injection, schedule: Q01DX009 (ip), vehicle: Klucel (hydroxypropylcellulose) (HPC)) is 159 % of control; the T/C (dose: 1.0 mg/kg/injection, schedule: Q01DX001 (ip), vehicle: carboxymethylcellulose (CMC)) was 103 % of control; the T/C (dose: 1.0 mg/kg/injection, schedule: Q01DX009 (ip), vehicle: Klucel (hydroxypropylcellulose) (HPC)) was 232 % of control; the T/C (dose: 2.0 mg/kg/injection, schedule: Q01DX001 (ip), vehicle: carboxymethylcellulose (CMC)) is 103 % of control and 119 % of control; the T/C (dose: 4.0 mg/kg/injection, schedule: Q01DX001 (ip), vehicle: carboxymethylcellulose (CMC)) was 109 % of control. Further, the T/C (dose: 6.0 mg/kg/injection, schedule: Q01DX009 (ip), vehicle: carboxymethylcellulose (CMC)) was 161 % of control; the T/C (dose: 8.0 mg/kg/injection, schedule: Q01DX001 (ip), vehicle: carboxymethylcellulose (CMC)) is 104 % of control; the T/C (dose: 8.8 mg/kg/injection, schedule: Q01DX009 (ip), vehicle: carboxymethylcellulose (CMC)) is 163 % of control; the T/C (dose: 13.0 mg/kg/injection, schedule: Q01DX009 (ip), vehicle: Klucel (hydroxypropylcellulose) (HPC)) was 120 % of control; the T/C (dose: 13.3 mg/kg/injection, schedule: Q01DX009 (ip), vehicle: carboxymethylcellulose (CMC)) is 121 % of control; the T/C (dose: 15.0 mg/kg/injection, schedule: Q01DX001 (ip), vehicle: carboxymethylcellulose (CMC)) was 153 % of control. Also, the T/C was 110 % of control (dose: 20.0 mg/kg/injection, schedule: Q01DX009 (ip), vehicle: carboxymethylcellulose (CMC)); 104 % of control and 231 % of control and 86 % of control (dose: 30.0 mg/kg/injection, schedule: Q01DX001 (ip), vehicle: carboxymethylcellulose (CMC)); 90 % of control (dose: 30.0 mg/kg/injection, schedule: Q01DX009 (ip), vehicle: Klucel (hydroxypropylcellulose) (HPC)); 100 % of control (dose: 30.0 mg/kg/injection, schedule: Q01DX009 (ip), vehicle: carboxymethylcellulose (CMC)); 155 % of control (dose: 45.0 mg/kg/injection, schedule: Q01DX001 (ip), vehicle: carboxymethylcellulose (CMC)); 109 % of control and 204 % of control (dose: 60.0 mg/kg/injection, schedule: Q01DX001 (ip), vehicle: carboxymethylcellulose (CMC)). Moreover, where the note is “dose: 120.0 mg/kg/injection, schedule: Q01DX001 (ip), vehicle: carboxymethylcellulose (CMC)”, the T/C was 114 % of control.

Turning to `COC(=O)C1Oc2ccc(Cl)cc2Cc2cc(Cl)ccc2O1`, the T/C runs as follows: under setting [8], 93 % of control; under setting [10], 100 % of control; under setting [9], 93 % of control; under setting [4], 93 % of control; (dose: 400.0 mg/kg/injection, schedule: Q01DX009 (ip), vehicle: Klucel (hydroxypropylcellulose) (HPC)) 93 % of control; under setting [11], 90 % of control.

Take `N#CSCC(=O)c1ccc(Cl)cc1`: the T/C by setting is: (dose: 50.0 mg/kg/injection, schedule: Q01DX001 (ip), vehicle: carboxymethylcellulose (CMC)) 91 % of control; (dose: 100.0 mg/kg/injection, schedule: Q01DX001 (ip), vehicle: carboxymethylcellulose (CMC)) 100 % of control; (dose: 200.0 mg/kg/injection, schedule: Q01DX001 (ip), vehicle: carboxymethylcellulose (CMC)) 100 % of control.

With `CC(=O)NC1CCCC2CCCCC21` (configuration not stated), the T/C is, setting by setting: under setting [12], 94 % of control and 99 % of control; under setting [5], 93 % of control; under setting [13], 109 % of control and 100 % of control; under setting [6], 94 % of control; (dose: 400.0 mg/kg/injection, schedule: Q01DX009 (ip), vehicle: saline with Tween-80) 103 % of control; under setting [7], 94 % of control.

As for `c1ccc2c[n+](Cc3nc4ccccc4[nH]3)ccc2c1`, the T/C under setting [14] was 101 % of control.

Turning to `Nc1cc(Cl)ccc1Oc1ccc(Cl)cc1`, the T/C reads like this: (dose: 37.5 mg/kg/injection, schedule: Q01DX009 (ip), vehicle: Klucel (hydroxypropylcellulose) (HPC)) 103 % of control; (dose: 75.0 mg/kg/injection, schedule: Q01DX009 (ip), vehicle: Klucel (hydroxypropylcellulose) (HPC)) 98 % of control; (dose: 150.0 mg/kg/injection, schedule: Q01DX009 (ip), vehicle: Klucel (hydroxypropylcellulose) (HPC)) 95 % of control.

With `CC(C)C1N=C(N)N=C(N)N1c1ccc(Cl)c(Cl)c1` (configuration not stated), the T/C under setting [14] is 105 % of control and the T/C (dose: 150.0 mg/kg/injection, schedule: Q01DX001 (ip), vehicle: saline) was 96 % of control.

Regarding `ClCCOc1ccccc1`, the T/C runs as follows: under setting [1], 95 % of control; under setting [2], 101 % of control.

Consider `Nc1nc(N)c(-c2ccc(Cl)cc2)c(C(=O)O)n1`, for which the T/C is 90 % of control (dose: 25.0 mg/kg/injection, schedule: Q01DX009 (ip), vehicle: saline with Tween-80); 97 % of control (dose: 50.0 mg/kg/injection, schedule: Q01DX009 (ip), vehicle: saline with Tween-80); 93 % of control and 103 % of control under setting [12].

Take `CCCCCC/C(C)=N/O`: the T/C was 94 % of control under setting [12]; 106 % of control under setting [5]; 103 % of control under setting [13]; 95 % of control under setting [6]; 98 % of control under setting [7].

As for `Cc1cc(C)n(/N=C/c2c[nH]c3ccccc23)c(=O)c1C#N`, the T/C (dose: 100.0 mg/kg/injection, schedule: Q01DX001 (ip), vehicle: Klucel (hydroxypropylcellulose) (HPC)) is 97 % of control; the T/C under setting [10] is 97 % of control; the T/C (dose: 200.0 mg/kg/injection, schedule: Q01DX001 (ip), vehicle: Klucel (hydroxypropylcellulose) (HPC)) is 97 % of control; the T/C under setting [4] is 94 % of control; the T/C (dose: 400.0 mg/kg/injection, schedule: Q01DX001 (ip), vehicle: Klucel (hydroxypropylcellulose) (HPC)) was 96 % of control; the T/C under setting [11] was 97 % of control.
